Structures are written as SMILES.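 Exposure lasted 48 hours, with cells grown in 96-well plates and compounds tested at five concentrations. GI50 = concentration required for 50% inhibition of growth. At the TGI there is no net growth.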

Some test systems named below: HCC-2998 colon; NCI-H23 lung; COLO 205 colon; UO-31 renal; M14 melanoma; A549 NSCLC; KM12 colon; DU-145 prostate; IGROV1 ovarian; HOP-92 NSCLC.
What all share (test): inhibition of tumour cell growth, NCI panel, 48 h

As to `O=C(O)Cn1c2c(c3c1-c1ccccc1C3=O)C(=O)CCC2`, the GI50 with HCC-2998 colon, in the experiment with NCI-H23 lung, in the experiment with COLO 205 colon, in the experiment with UO-31 renal, in the experiment on M14 melanoma and with A549 NSCLC was over 100 µM each time. For the same compound, the GI50 in the experiment on KM12 colon is over 100 µM; with DU-145 prostate, over 100 µM; in the experiment with IGROV1 ovarian it was over 100 µM; with HOP-92 NSCLC it was 20 µM. In addition, the TGI with HCC-2998 colon, in the experiment on NCI-H23 lung, in the experiment with COLO 205 colon, with UO-31 renal, in the experiment with M14 melanoma and in the experiment with A549 NSCLC was over 100 µM each time. The TGI in the experiment on KM12 colon, in the experiment on DU-145 prostate, with IGROV1 ovarian and in the experiment on HOP-92 NSCLC was over 100 µM each time.

Take `COC(=O)CCC(=O)NC1=C(Nc2ccccc2)C(=O)c2ccccc2C1=O`: the TGI in the experiment with HCC-2998 colon came to 37.9 µM; in the experiment on NCI-H23 lung, 12.9 µM; with COLO 205 colon it was 35.3 µM; in the experiment on UO-31 renal, 32.2 µM; in the experiment on M14 melanoma, 7.27 µM; in the experiment with A549 NSCLC it was 37 µM. For the same compound, the TGI in the experiment with KM12 colon amounted to 32.5 µM; with DU-145 prostate it was 23.2 µM; in the experiment with IGROV1 ovarian, 26 µM; in the experiment with HOP-92 NSCLC, 31.7 µM.

As for `CSc1nnc(SCc2nn3c(=O)cc(C)nc3s2)s1`, the TGI in the experiment on HCC-2998 colon, in the experiment with NCI-H23 lung, in the experiment with COLO 205 colon, in the experiment with UO-31 renal, in the experiment with M14 melanoma and in the experiment with A549 NSCLC was over 100 µM each time. For the same compound, the TGI with KM12 colon, in the experiment on DU-145 prostate, in the experiment on IGROV1 ovarian and with HOP-92 NSCLC was over 100 µM throughout.

In the case of `O=C(O)CSC1=NNC2(C(=O)N1)c1ccccc1-c1ccccc12`, the TGI in the experiment with HCC-2998 colon, in the experiment on NCI-H23 lung, in the experiment on COLO 205 colon, in the experiment with UO-31 renal, with M14 melanoma and with A549 NSCLC was over 10 µM each time. The TGI in the experiment on KM12 colon, in the experiment on DU-145 prostate, in the experiment with IGROV1 ovarian and with HOP-92 NSCLC was over 10 µM each time.

With `COc1ccc(OC)c2c(C)ccnc12`, the TGI with HCC-2998 colon is over 100 µM; in the experiment on NCI-H23 lung, over 96.1 µM; with COLO 205 colon, over 83.3 µM; in the experiment on UO-31 renal, 74.3 µM; in the experiment on M14 melanoma, 34.3 µM; with A549 NSCLC, 97.7 µM. In addition, the TGI is over 100 µM with KM12 colon, over 100 µM with DU-145 prostate, over 66.4 µM with IGROV1 ovarian and 90.8 µM in the experiment on HOP-92 NSCLC.

In the case of `C=C(Br)C[N+]12CN3CN(CN(C3)C1)C2`, the TGI with HCC-2998 colon, in the experiment with NCI-H23 lung, in the experiment with COLO 205 colon, in the experiment with UO-31 renal, in the experiment on M14 melanoma and with A549 NSCLC was over 100 µM throughout. Besides, the TGI in the experiment with KM12 colon, in the experiment on DU-145 prostate, with IGROV1 ovarian and in the experiment with HOP-92 NSCLC was over 100 µM in each case.

As to `O=C(Nc1ccc(-n2cc(-c3ccncc3)c(-c3ccc(O)c(Cl)c3)n2)cc1)c1ccc(Cl)c(C(F)(F)F)c1`, the GI50 was 2.82 µM with HCC-2998 colon; 2.55 µM in the experiment on NCI-H23 lung; 7.67 µM in the experiment on COLO 205 colon; 2.65 µM in the experiment with UO-31 renal; 0.946 µM with M14 melanoma; 2.09 µM with A549 NSCLC. For the same compound, the GI50 is 1.93 µM in the experiment with KM12 colon, 3.35 µM in the experiment on DU-145 prostate, 15.6 µM with IGROV1 ovarian and 1.07 µM with HOP-92 NSCLC. The TGI with HCC-2998 colon was over 50 µM; with NCI-H23 lung, over 50 µM; with COLO 205 colon, 26 µM; with UO-31 renal it was 28.3 µM; with M14 melanoma, 2.08 µM; in the experiment on A549 NSCLC, over 50 µM. The TGI with KM12 colon is over 50 µM; with DU-145 prostate, over 50 µM; in the experiment with IGROV1 ovarian it was over 50 µM; with HOP-92 NSCLC, 4.55 µM.

For `Cc1ccc(S(=O)(=O)OCCC2CN(C(=O)OCc3ccccc3)C(C)(C)O2)cc1` (stereo not given), the TGI with HCC-2998 colon was 72.7 µM; in the experiment on NCI-H23 lung it was 13.5 µM; in the experiment with COLO 205 colon, over 100 µM; in the experiment with UO-31 renal, 15.4 µM; with M14 melanoma, 38.1 µM; in the experiment on A549 NSCLC, over 100 µM. The TGI with KM12 colon is 12.4 µM; with DU-145 prostate, over 100 µM; with IGROV1 ovarian it was over 100 µM; in the experiment on HOP-92 NSCLC it was over 100 µM.

With `O=C1C=C(N2CCN(c3ncccn3)CC2)C(=O)c2c(O)ccc(O)c21`, the TGI with HCC-2998 colon, in the experiment on NCI-H23 lung, in the experiment on COLO 205 colon, in the experiment with UO-31 renal, with M14 melanoma and in the experiment on A549 NSCLC was over 100 µM throughout. Moreover, the TGI with KM12 colon, with DU-145 prostate, in the experiment with IGROV1 ovarian and with HOP-92 NSCLC was over 100 µM in each case.

Take `O=c1[nH]nc(-c2ccccc2)c2[nH]c3c(c12)Cc1ccccc1-3`: the TGI with HCC-2998 colon is over 100 µM; in the experiment on NCI-H23 lung, over 100 µM; with COLO 205 colon it was over 34.4 µM; in the experiment on UO-31 renal it was over 100 µM; in the experiment with M14 melanoma it was over 100 µM; in the experiment with A549 NSCLC it was over 100 µM. The TGI in the experiment with KM12 colon is over 83.5 µM; in the experiment on DU-145 prostate, over 100 µM; in the experiment on IGROV1 ovarian, over 100 µM; with HOP-92 NSCLC, 9.68 µM.

`[N-]=[N+]=Nc1nc2ccccc2c(N=[N+]=[N-])c1Cl`: the TGI in the experiment with HCC-2998 colon, in the experiment on NCI-H23 lung, in the experiment with COLO 205 colon, in the experiment on UO-31 renal, in the experiment with M14 melanoma and with A549 NSCLC was over 100 µM throughout. Moreover, the TGI with KM12 colon, with DU-145 prostate, with IGROV1 ovarian and in the experiment with HOP-92 NSCLC was over 100 µM each time.

On to `CC/C=C/c1cc2c(cc1O)CCC1C2CC[C@@]2(C)C1CC[C@@H]2O` (stereo not given in full), for which the TGI with HCC-2998 colon was 33.2 µM; with NCI-H23 lung, 20.2 µM; in the experiment with COLO 205 colon it was 27.5 µM; with UO-31 renal, 18.3 µM; in the experiment on M14 melanoma it was 12.2 µM; in the experiment on A549 NSCLC, 20 µM. In addition, the TGI in the experiment on KM12 colon is 15 µM; with DU-145 prostate, 14.6 µM; with IGROV1 ovarian, 17.5 µM; in the experiment on HOP-92 NSCLC it was 26 µM.

For the origin of these results see PubChem BioAssay (NCI).
